Measured values as given in BindingDB's records for doi:10.1080/14756360903179351 (University of Tehran, 2010).
Where “and” joins values, the source holds several entries; their conditions need not be identical. Equal entries are not always repeated. Structures can show the parent of a compound that is named as a salt.

Biological target: T1, Polyphenol oxidase 1 (White button mushroom, UniProt Q00024)
T1 sequence (Q00024 whole entry): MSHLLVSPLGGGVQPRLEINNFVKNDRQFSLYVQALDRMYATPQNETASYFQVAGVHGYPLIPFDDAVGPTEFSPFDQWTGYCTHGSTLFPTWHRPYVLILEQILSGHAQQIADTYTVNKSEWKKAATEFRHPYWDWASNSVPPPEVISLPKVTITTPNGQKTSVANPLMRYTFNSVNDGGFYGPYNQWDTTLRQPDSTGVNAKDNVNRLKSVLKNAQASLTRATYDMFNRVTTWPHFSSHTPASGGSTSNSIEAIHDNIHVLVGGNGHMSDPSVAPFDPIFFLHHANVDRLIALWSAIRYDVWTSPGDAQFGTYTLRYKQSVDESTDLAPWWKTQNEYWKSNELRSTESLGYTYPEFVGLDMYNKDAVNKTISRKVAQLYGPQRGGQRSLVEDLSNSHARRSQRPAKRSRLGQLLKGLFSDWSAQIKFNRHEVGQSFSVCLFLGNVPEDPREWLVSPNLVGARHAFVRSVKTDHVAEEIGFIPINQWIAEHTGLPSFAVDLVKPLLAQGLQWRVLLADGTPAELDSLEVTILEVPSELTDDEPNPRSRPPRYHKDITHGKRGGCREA
Assay: MT Kinetic Assay
Conditions: pH 6.8
Description: The assay was performed as previously described with slight modifications [Chen et al., J. Agric. Food Chem., 50:4108-12]. The reaction medium was 1 mL in 50 mM phosphate buffer (pH 6.8). The final concentration of mushroom tyrosinase was 26.07 μg/mL for cresolase activity and 6.52 μg/mL for catecholase activity. Freshly prepared enzyme, substrate, and dithiocarbamates I and II were used in this work. The reaction was carried out under constant temperatures of 27 and 37°C. Substrate addition followed incubation of the enzyme with different concentrations of synthetic inhibitors.

Compound	Ki (27 °C)	Ki (37 °C)
S=C(S)NCc1ccccc1	14.1 µM and 9.4 µM	5.9 µM and 5.7 µM
S=C(S)NCc1ccc(CNC(=S)S)cc1 [p-Xylidine-bis(dithiocarbamate) sodium salt (II)]	0.64 µM and 0.29 µM	0.95 µM and 1.05 µM
